Patent US20250368628A1, “METHODS AND COMPOUNDS FOR MODULATING INHERITED GENETIC DISEASES” (Design Therapeutics, Inc., priority 2022, published 2025)
Where two headings read alike, the source gives them in different places.

How the values were obtained:
[1] = tested on: Myotonic Dystrophy 1 affected patient fibroblasts (Coriel GM04602; 1600 CTG repeats); experiment: DM1 foci reduction assay (EC50 assay; CAG10-Cy3 FISH, foci per nucleus); format: cell-based
How it was run: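 Foci per nucleus counted by 20× imaging of 4 areas per well, after overnight FISH with 5 nM CAG10-Cy3 and DAPI staining of fixed, permeabilized cells. DM1 fibroblasts (GM04602, 1600 CTG) were dosed 48 h at 37 °C, 8 points, 3-fold dilutions, 3 μM top concentration.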

F35T cells = experiment: Foci reduction in FECD (CAG10-Cy3 FISH, foci per nucleus); format: cell-based
How it was run: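 Foci per nucleus were counted by imaging after overnight CAG10-Cy3 FISH at 37 °C (30% formamide, 2×SSC) with DAPI counterstain, on PFA-fixed, ethanol-permeabilized F35T cells. The cells, seeded at 5000 per well in supplemented Opti-MEM, had received 8-point compound dilutions for 48 h at 37 °C.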

[2] = Homo sapiens, Fibroblast; DM1 patient fibroblasts, 48 h treatment, foci per nucleus; read-out: DM1 EC50, 48 h
[3] = F35T cells, 48 h treatment, foci per nucleus; read-out: FECD EC50, 48 h
[4] = Homo sapiens, Fibroblast; DM1 patient fibroblasts, foci per nucleus, 48 h treatment; read-out: DM1 EC50, 48 h
[5] = F35T cells, foci per nucleus, 48 h treatment; read-out: FECD EC50, 48 h

Row | Compound | EC50 [1, 2] [nM] | EC50 (F35T cells; [3]) [nM] | EC50 [1, 4] [nM] | EC50 (F35T cells; [5]) [nM]
1 | CCCNC(=O)CCNC(=O)c1nc(NC(=O)c2cc(NC(=O)CCNC(=O)c3nc(NC(=O)CCCNC(=O)c4cc(NC(=O)c5nc(NC(=O)CCNC(=O)c6cc(NC(=O)c7nccn7C)cn6C)cn5C)cn4CCNC(C)=O)cn3C)cn2C)cn1C [Compound B-268] | 100 to 500 | < 100 |  | 
2 | Cn1cc(NC(=O)c2nc(NC(=O)CCNC(=O)c3cc(NC(=O)c4nccn4C)cn3C)cn2C)cc1C(=O)NCCCC(=O)Nc1cn(C)c(C(=O)NCCC(=O)Nc2cc(C(=O)Nc3cn(C)c(C(=O)NCCC(=O)NCCCCCN4CCC(C#CC#CC5CCN(C(=O)c6ccc(C(C)(C)C)cc6)CC5)CC4)n3)n(C)c2)n1 [Compound B-177] | 500 to 1000 | 100 to 500 |  | 
3 | C=C(NCCC(=O)Nc1cc(C(=O)Nc2cn(C)c(C(=O)NCCC(=O)NCCC)n2)n(C)c1)c1nc(NC(=O)CCCNC(=O)c2cc(NC(=O)c3nc(NC(=O)CCNC(=O)c4cc(NC(=O)c5nccn5C)cn4C)cn3C)cn2CCCNC(=O)C(C)(C)C)cn1C [Compound B-400] | < 100 | < 100 |  | 
4 | Cn1cc(NC(=O)c2nc(NC(=O)CCNC(=O)c3cc(NC(=O)c4nccn4C)cn3C)cn2C)cc1C(=O)NCCCC(=O)Nc1cn(C)c(C(=O)NCCC(=O)Nc2cc(C(=O)Nc3cn(C)c(C(=O)NCCC(=O)NCCOCCOCCOCCOCCN4CCN(C5CCNCC5)CC4)n3)n(C)c2)n1 [Compound B-22] | 100 to 500 | 100 to 500 |  | 
5 | CCCNC(=O)CCNC(=O)c1nc(NC(=O)c2cc(NC(=O)CCNC(=O)c3nc(NC(=O)CCCNC(=O)c4cc(NC(=O)c5nc(NC(=O)CCNC(=O)c6cc(NC(=O)c7nccn7C)cn6C)cn5C)cn4CCCCCCN)cn3C)cn2C)cn1C [Compound B-59] | 100 to 500 | 100 to 500 |  | 
6 | Cn1cc(NC(=O)c2nc(NC(=O)CCNC(=O)c3cc(NC(=O)c4nccn4C)cn3C)cn2C)cc1C(=O)NCCCC(=O)Nc1cn(C)c(C(=O)NCCC(=O)Nc2cc(C(=O)Nc3cn(C)c(C(=O)NCCC(=O)N4CCC(C#CC5=CCNCC5)CC4)n3)n(C)c2)n1 [Compound B-346] | 100 to 500 | < 100 |  | 
7 | CC(=O)N1CCC(C#CC#CC2CCN(CCOCCOCCOCCNC(=O)CCNC(=O)c3nc(NC(=O)c4cc(NC(=O)CCNC(=O)c5nc(NC(=O)CCCNC(=O)c6cc(NC(=O)c7nc(NC(=O)CCNC(=O)c8cc(NC(=O)c9nccn9C)cn8C)cn7C)cn6C)cn5C)cn4C)cn3C)CC2)CC1 [Compound B-121] | 100 to 500 | 100 to 500 |  | 
8 | Cn1cc(NC(=O)c2nc(NC(=O)CCNC(=O)c3cc(NC(=O)c4nccn4C)cn3C)cn2C)cc1C(=O)NCCCC(=O)Nc1cn(C)c(C(=O)NCCC(=O)Nc2cc(C(=O)Nc3cn(C)c(C(=O)NCCC(=O)N4CC=C(C#CC5CCN(C(=O)OC(C)(C)C)CC5)CC4)n3)n(C)c2)n1 [Compound B-347] | < 100 | 100 to 500 |  | 
9 | Cn1cc(NC(=O)c2nc(NC(=O)CCNC(=O)c3cc(NC(=O)c4nccn4C)cn3C)cn2C)cc1C(=O)NCCCC(=O)Nc1cn(C)c(C(=O)NCCC(=O)Nc2cc(C(=O)Nc3cn(C)c(C(=O)NCCC(=O)N[C@@H](CCCNC(=N)N)C(=O)N[C@@H](CCCNC(=N)N)C(=O)NCCCCN=[N+]=[N-])n3)n(C)c2)n1 [Compound B-150] | > 1000 | > 1000 |  | 
10 | CCCNC(=O)CCNC(=O)c1nc(NC(=O)c2cc(NC(=O)CCNC(=O)c3nc(NC(=O)CCCNC(=O)c4cc(NC(=O)c5nc(NC(=O)CCNC(=O)c6cc(NC(=O)c7nccn7C)cn6C)cn5C)cn4C)cn3C)cn2CCCCCCN)cn1C [Compound B-57] | 100 to 500 | 500 to 1000 |  | 
11 | CCCNC(=O)CCNC(=O)c1nc(NC(=O)c2cc(NC(=O)CCNC(=O)c3nc(NC(=O)CCCNC(=O)c4cc(NC(=O)c5nc(NC(=O)CCNC(=O)c6cc(NC(=O)c7nccn7C)cn6C)cn5C)cn4CCN=[N+]=[N-])cn3C)cn2C)cn1C [Compound B-264] | < 100 | < 100 |  | 
12 | COCCOCCOCCOCCOCCOCCNC(=O)CCNC(=O)c1nc(NC(=O)c2cc(NC(=O)CCNC(=O)c3nc(NC(=O)CCCNC(=O)c4cc(NC(=O)c5nc(NC(=O)CCNC(=O)c6cc(NC(C)c7nccn7C)cn6C)cn5C)cn4C)cn3C)cn2C)cn1C (stereo not shown) [Compound B-78] | 100 to 500 | 100 to 500 |  | 
13 | CN(C)CCCNC(=O)c1cc(NC(=O)CCNC(=O)c2nc(NC(=O)[C@H](N)CCNC(=O)c3cc(NC(=O)c4nc(NC(=O)CCNC(=O)c5cc(NC(=O)c6nccn6C)cn5C)cn4C)cn3C)cn2C)cn1C [Compound B-367] | > 1000 | > 1000 |  | 
14 | Cn1cc(NC(=O)c2nc(NC(=O)CCNC(=O)c3cc(NC(=O)c4nccn4C)cn3C)cn2C)cc1C(=O)NCCCC(=O)Nc1cn(C)c(C(=O)NCCC(=O)Nc2cc(C(=O)Nc3cn(C)c(C(=O)NCCC(=O)N4CCC(C#CC#CC5CCOCC5)CC4)n3)n(C)c2)n1 [Compound B-380] | < 100 | < 100 |  | 
15 | CC(=O)N1CCC(C#CC#CC2CCN(C(=O)CCNC(=O)c3nc(NC(=O)c4cc(NC(=O)CCNC(=O)c5nc(NC(=O)CCCNC(=O)c6cc(NC(=O)c7nc(NC(=O)CCNC(=O)c8cc(NC(=O)c9nccn9C)cn8C)cn7C)cn6CCCOCCN)cn5C)cn4C)cn3C)CC2)CC1 [Compound B-302] | < 100 | < 100 |  | 
16 | CCOC(=O)c1nc(NC(=O)c2cc(NC(=O)CCNC(=O)c3nc(NC(=O)CCCNC(=O)c4cc(NC(=O)c5nc(NC(=O)CCNC(=O)c6cc(NC(=O)c7nccn7C)cn6C)cn5C)cn4CCCCCCn4nnc5c4-c4ccccc4N(C(=O)CCC(=O)NCCOCCOCCCCCCCl)Cc4ccccc4-5)cn3C)cn2C)cn1C [Compound B-375] | > 1000 | > 1000 |  | 
17 | CCCNC(=O)CCNC(=O)c1nc(NC(=O)c2cc(NC(=O)CCNC(=O)c3nc(NC(=O)CCCNC(=O)c4cc(NC(=O)c5nc(NC(=O)CCNC(=O)c6cc(NC(=O)c7nc(NC=O)cn7C)cn6C)cn5C)cn4C)cn3C)cn2C)cn1C [Compound B-324] | 100 to 500 | < 100 |  | 
18 | CNC(=O)CCNC(=O)c1nc(NC(=O)c2cc(NC(=O)CCNC(=O)c3nc(NC(=O)CCCNC(=O)c4cc(NC(=O)c5nc(NC(=O)CCNC(=O)c6cc(NC(=O)c7nccn7C)cn6C)cn5C)cn4C)cn3C)cn2C)cn1C [Compound B-309] | 500 to 1000 | < 100 |  | 
19 | CCCCn1cc(NC(=O)c2nc(NC(=O)CCNC(=O)c3cc(NC(=O)c4nccn4C)cn3C)cn2C)cc1C(=O)NC[C@H](N)CC(=O)Nc1cn(C)c(C(=O)NCCC(=O)Nc2cc(C(=O)Nc3cn(C)c(C(=O)NCCCCN(C)C)n3)n(C)c2)n1 [Compound B-423] |  |  | 100 to 500 | > 1000
20 | Cn1cc(NC(=O)c2nc(NC(=O)CCNC(=O)c3cc(NC(=O)c4nccn4C)cn3C)cn2C)cc1C(=O)NCCCC(=O)Nc1cn(C)c(C(=O)NCCC(=O)Nc2cc(C(=O)Nc3cn(C)c(C(=O)NCCCN(CC#Cc4cccc(C(=O)O)c4)CCCN)n3)n(C)c2)n1 [Compound B-383] | > 1000 | < 100 |  | 
21 | COCCOCCOCCOCCOCCOCCC(=O)NCCCCCCn1cc(NC(=O)c2nc(NC(=O)CCNC(=O)c3cc(NC(=O)c4nccn4C)cn3C)cn2C)cc1C(=O)NCCCC(=O)Nc1cn(C)c(C(=O)NCCC(=O)Nc2cc(C(=O)Nc3cn(C)c(C(=O)NCCC(=O)N4CCC(C#CC#CC5CCN(C(C)=O)CC5)CC4)n3)n(C)c2)n1 [Compound B-239] | 100 to 500 | 100 to 500 |  | 
22 | Cn1cc(NC(=O)c2nccn2C)cc1C(=O)NCCC(=O)Nc1cn(C)c(C(=O)Nc2cc(C(=O)NCCCC(=O)Nc3cn(C)c(C(=O)NCCC(=O)Nc4cc(C(=O)Nc5cn(C)c(C(=O)NCCC(=O)N6CCC(C#CC#CC7CCNCC7)CC6)n5)n(C)c4)n3)n(CCOCCN)c2)n1 [Compound B-297] | > 1000 | 100 to 500 |  | 
23 | CCCNC(=O)c1nc(NC(=O)c2cc(NC(=O)CCNC(=O)c3nc(NC(=O)CCCNC(=O)c4cc(NC(=O)c5nc(NC(=O)CCNC(=O)c6cc(NC(=O)c7nc(NC=O)cn7C)cn6C)cn5C)cn4C)cn3C)cn2C)cn1C [Compound B-327] | < 100 | < 100 |  | 
24 | CC(=O)NCCCCCCn1cc(NC(=O)c2nc(NC(=O)CCNC(=O)c3cc(NC(=O)c4nccn4C)cn3C)cn2C)cc1C(=O)NCCCC(=O)Nc1cn(C)c(C(=O)NCCC(=O)Nc2cc(C(=O)Nc3cn(C)c(C(=O)NCCC(=O)N4CCC(C#CC#CC5CCN(C(=O)OC(C)(C)C)CC5)CC4)n3)n(C)c2)n1 [Compound B-356] | > 1000 | 500 to 1000 |  | 
25 | Cn1cc(NC(=O)c2nc(NC(=O)CCNC(=O)c3cc(NC(=O)c4nccn4C)cn3C)cn2C)cc1C(=O)NCCCC(=O)Nc1cn(C)c(C(=O)NCCC(=O)Nc2cc(C(=O)Nc3cn(C)c(C(=O)NCCC(=O)NCCCCN=[N+]=[N-])n3)n(C)c2)n1 [Compound B-45] | < 100 | 500 to 1000 |  | 
26 | CCCCCCn1cc(NC(=O)c2nc(NC(=O)CCNC(=O)c3cc(NC(=O)c4nccn4C)cn3C)cn2C)cc1C(=O)NCCCC(=O)Nc1cn(C)c(C(=O)NCCC(=O)Nc2cc(C(=O)Nc3cn(C)c(C(=O)NCCC(=O)N4CCN(C)CC4)n3)n(C)c2)n1 [Compound B-425] |  |  | < 100 | < 100
